Experiments:
Assay type in all cases: in vivo
[1] = test system: Bluegill Sunfish (Lepomis macrochirus); experiment: Acute toxicity to Bluegill Sunfish
Description: The same test procedure was used as described in example 6, except that Bluegill Sunfish were used and that the test vessels were kept in a water bath at 22° C.

[2] = test system: tobacco budworm; experiment: LD90 test against tobacco budworm (micrograms/GWT); settings: GWT = Gram Weight of the Test insect
Excerpt: (§1) For example, tests have been carried out in which the instant compound was compared with avermectin Bla/Blb (avermectin the starting material for the instant compound) and 4"-deoxy-4"-amino avermectin Bla/Blb. […] Expressed another way, 4"-deoxy-4"-amino avermectin Bla/Blb was 60% effective at 0.5 micrograms/GWT against southern armyworm while 4"-deoxy-4"-epi-N-methylamino avermectin Bla/Blb was 90% effective at 0.125 micrograms/GWT against the same parasite.

[3] = test system: Spodoptera eridania larvae; experiment: Contact toxicity study against Spodoptera eridania larvae; settings: 96 hours, in microgram per gram body weight (BTI 159)
Description: In a contact toxicity study against Spodoptera eridania larvae 4"-deoxy-4"-epimethylamino avermectin Bla/Blb was 4 times more toxic than 4"-deoxy-4"-epiamino avermectin Bla/Blb as measured at 96 hours in microgram per gram body weight. (BTI 159).

[4] = test system: Daphnia magna; experiment: Acute toxicity to Daphnia magna
Description: In one test of the instant compound (see Example 5) and closely related avermectin compounds against Daphnia magna, described as a 48 hour LC50 test, that is, the concentration of compound which is fatal to 50% of Daphnia magna over a 48 hour period, it was observed that avermectin Bla/Blb has an LC50 of 300 ppt (parts per trillion); and 4"-deoxy-4"-amino avermectin Bla/Blb has an LC50 of 600 ppt.
Ten Dahpnia magna (first instar less than 24 hours old) were placed in a 250 ml glass beaker containing 200 ml of an aqueous solution of the test compounds in concentrations from 1.0 to 10 microgram/liter (ppb). The test compounds were dissolved in a small volume of acetone for dilution with water. The solvent control contained 0.010 ml of acetone which is equivalent to the highest test concentration. A control and solvent control was added to the experiment which was conducted in two replicates. All concentrations were observed once at 24 and 48 hours for mortality and abnormal effects such as surfacing, clumping of the daphnids together and daphnids lying on the bottom of the beakers.

[5] = test system: Spodoptera eridania larvae; experiment: Foliar ingestion toxicity study against Spodoptera eridania larvae
[6] = test system: Heliothis zea larvae; experiment: Contact toxicity study against Heliothis zea larvae; settings: 96 hours
[7] = test system: Heliothis virescens larvae; experiment: Foliar ingestion toxicity study against Heliothis virescens larvae
[8] = test system: Heliothis zea larvae; experiment: Foliar ingestion toxicity against Heliothis zea larvae
[9] = test system: Rainbow Trout (Salmo gairdneri); experiment: Acute toxicity to Rainbow Trout, static fish bioassay
Description: The static fish bioassay was conducted in five gallon glass vessels containing 15 liters of soft reconstituted water composed of the following compounds in the amounts stated per liter of deionized water:
This reconstituted water was prepared to yield a total hardness of 40-48 mg/l as CaCO3, a total alkalinity of 20-30 mg/l as CaCO3 and an initial pH of 7.2 to 7.6. The 0-hour measured control water parameters of this dilution water were dissolved oxygen 9.7 mg/l and pH 7.4.
The test vessels were kept in a water bath at 12° C. The test fish were acclimated to the dilution water and test temperature and held without food for 48-96 hours prior to testing.
Based on the results of preliminary testing, six concentrations of the test compound with ten fish per concentration were selected for the definitive bioassay. The definitive test concentrations were obtained by transferring appropriate aliquots of a working standard directly to the test chambers. The working standard was prepared in dimethylformamide (DMF). Also included was a dilution water control and a solvent control chamber.
The fish were added to the test chambers by random assignment within 30 minutes after addition of test material. All test organisms were observed once every 24 hours for mortality and abnormal (sub-lethal) effects. any dead individuals were removed from the test chambers after each 24-hour observation. The LC50 statistic and its 95 percent confidence limits were calculated by employing a computerized standard program.

[10] = test system: Heliothis virescens larvae; experiment: Contact toxicity study against Heliothis virescens larvae
[11] = test system: southern armyworm; experiment: LD90 test against southern armyworm (micrograms/GWT); settings: GWT = Gram Weight of the Test insect
Excerpt: as §1

[12] = 24 hr, nominal concentration 0.056 mg/l
[13] = 24 hr, nominal concentration 0.10 mg/l
[14] = 24 hr, nominal concentration 0.18 mg/l
[15] = 24 hr, nominal concentration 0.32 mg/l
[16] = 24 hr, nominal concentration 0.56 mg/l
[17] = 24 hr, nominal concentration 1.0 mg/l
[18] = 48 hr, nominal concentration 0.056 mg/l
[19] = 48 hr, nominal concentration 0.10 mg/l
[20] = 48 hr, nominal concentration 0.18 mg/l
[21] = 48 hr, nominal concentration 0.32 mg/l
[22] = 48 hr, nominal concentration 0.56 mg/l
[23] = 48 hr, nominal concentration 1.0 mg/l
[24] = 96 hr, nominal concentration 0.056 mg/l
[25] = 96 hr, nominal concentration 0.10 mg/l
[26] = 96 hr, nominal concentration 0.18 mg/l
[27] = 96 hr, nominal concentration 0.32 mg/l
[28] = 96 hr, nominal concentration 0.56 mg/l
[29] = 96 hr, nominal concentration 1.0 mg/l
[30] = 48 hour, ppt = parts per trillion
[31] = 0.04 microgram/gram body weight

4"-Deoxy-4"-epi-methylaminoavermectin Bla/Blb
LC50 ([1]; 24 hours): 0.75 milligrams/liter (ppm) | Percent Mortality [1, 12]: 0% | Percent Mortality [1, 13]: 0% | Percent Mortality [1, 14]: 0% | Percent Mortality [1, 15]: 0% | Percent Mortality [1, 16]: 0% | Percent Mortality [1, 17]: 100% | LC50 ([1]; 48 hours): 0.45 milligrams/liter (ppm) | Percent Mortality [1, 18]: 0% | Percent Mortality [1, 19]: 0% | Percent Mortality [1, 20]: 0% | Percent Mortality [1, 21]: 0% | Percent Mortality [1, 22]: 90% | Percent Mortality [1, 23]: 100% | LC50 ([1]; 96 hours): 0.24 milligrams/liter (ppm) | Percent Mortality [1, 24]: 0% | Percent Mortality [1, 25]: 0% | Percent Mortality [1, 26]: 0% | Percent Mortality [1, 27]: 100% | Percent Mortality [1, 28]: 100% | Percent Mortality [1, 29]: 100% | LD90 (Lethal Dose for 90% of the insects) [2]: 0.4 micrograms/GWT | times more toxic than 4"-deoxy-4"-epiamino avermectin Bla/Blb [3]: 4 times | Percent Mortality ([4]; 24 hr, nominal concentration 1.0 microgram/l): 0% | Percent Mortality ([4]; 24 hr, nominal concentration 1.8 microgram/l): 0% | Percent Mortality ([4]; 24 hr, nominal concentration 3.2 microgram/l): 20% | Percent Mortality ([4]; 24 hr, nominal concentration 5.6 microgram/l): 30% | Percent Mortality ([4]; 24 hr, nominal concentration 10.0 microgram/l): 90% | times less toxic than the 4"-amino compound ([4]; 48 hour LC50, vs 4"-deoxy-4"-amino avermectin Bla/Blb): ~5 times | times less toxic than the avermectin Bla/Blb compound ([4]; 48 hour LC50, vs avermectin Bla/Blb): ~10 times | LC50 [4, 30]: 2900 ppt | LC50 ([4]; 48 hours): 2.9 micrograms/l | Percent Mortality ([4]; 48 hr, nominal concentration 1.0 microgram/l): 0% | Percent Mortality ([4]; 48 hr, nominal concentration 1.8 microgram/l): 5% | Percent Mortality ([4]; 48 hr, nominal concentration 3.2 microgram/l): 70% | Percent Mortality ([4]; 48 hr, nominal concentration 5.6 microgram/l): 95% | Percent Mortality ([4]; 48 hr, nominal concentration 10.0 microgram/l): 100% | LC90 (lethal concentration for 90% of the insects) [5]: 0.005 ppm | times more toxic than avermectin Bla/Blb (LC90) [5]: 1166 times | mortality [6, 31]: 20% | mortality ([6]; 0.4 microgram/g body weight): 100% | mortality ([6]; 4.0 microgram/gram body weight): 100% | LC90 [7]: 0.003 ppm | times more toxic than avermectin Bla/Blb (LC90) [7]: 43 times | LC90 [8]: 0.002 ppm | times more toxic than avermectin Bla/Blb (LC90) [8]: 105 times | LC50 ([9]; 24 hours): > 1.0 milligrams/liter (ppm) | Percent Mortality [9, 12]: 0% | Percent Mortality [9, 13]: 0% | Percent Mortality [9, 14]: 0% | Percent Mortality [9, 15]: 0% | Percent Mortality [9, 16]: 0% | Percent Mortality [9, 17]: 0% | LC50 ([9]; 48 hours): > 1.0 milligrams/liter (ppm) | Percent Mortality [9, 18]: 0% | Percent Mortality [9, 19]: 0% | Percent Mortality [9, 20]: 0% | Percent Mortality [9, 21]: 0% | Percent Mortality [9, 22]: 0% | Percent Mortality [9, 23]: 0% | LC50 ([9]; 96 hours): 0.67 milligrams/liter (ppm) | Percent Mortality [9, 24]: 0% | Percent Mortality [9, 25]: 0% | Percent Mortality [9, 26]: 0% | Percent Mortality [9, 27]: 0% | Percent Mortality [9, 28]: 20% | Percent Mortality [9, 29]: 100% | mortality ([10]; 0.1 microgram/g body weight): 25% | mortality ([10]; 0.4 microgram/g body weight): 100% | LD90 (Lethal Dose for 90% of the insects) [11]: 0.542 micrograms/GWT

4"-deoxy-4"-amino avermectin Bla/Blb [reference compound]
LD90 (Lethal Dose for 90% of the insects) [2]: 1.3 micrograms/GWT | LC50 [4, 30]: 600 ppt | LC50 ([4]; 48 hours): 0.6 micrograms/l | LD90 (Lethal Dose for 90% of the insects) [11]: 3.4 micrograms/GWT

4"-deoxy-4"-epiamino avermectin Bla/Blb [reference compound]
mortality [6, 31]: 0% | mortality ([6]; 0.4 microgram/g body weight): 90% | mortality ([6]; 4.0 microgram/gram body weight): 100% | mortality ([10]; 0.1 microgram/g body weight): 5% | mortality ([10]; 0.4 microgram/g body weight): 30%

avermectin Bla/Blb [reference compound]
LC50 ([1]; 24 hours): 0.029 milligrams/liter (ppm) | LC50 ([1]; 48 hours): 0.019 milligrams/liter (ppm) | LC50 ([1]; 96 hours): 0.0096 milligrams/liter (ppm) | LD90 (Lethal Dose for 90% of the insects) [2]: > 1.3 micrograms/GWT | LC50 [4, 30]: 300 ppt | LC50 ([4]; 48 hours): 0.34 micrograms/l | LC90 (lethal concentration for 90% of the insects) [5]: 5.83 ppm | LC90 [7]: 0.128 ppm | LC90 [8]: 0.21 ppm | LC50 ([9]; 24 hours): > 0.006 milligrams/liter (ppm) | LC50 ([9]; 48 hours): 0.0046 milligrams/liter (ppm) | LC50 ([9]; 96 hours): 0.0032 milligrams/liter (ppm) | LD90 (Lethal Dose for 90% of the insects) [11]: > 34.0 micrograms/GWT

Reference: patent publication US4874749A, “4"-Deoxy-4-N-methylamino avermectin Bla/Blb” (Merck & Co., Inc., priority 1987, dated 1989)
